Source: PubChem BioAssay AID248 (DTP/NCI, 2004)
Where “and” joins values, the source holds several entries; their conditions need not be identical. Equal values may be shown once. Toxic doses and inconclusive results are not listed. Rule as the data show it: active = T/C of 150% or more; inactive = T/C below 125%.

Test system: L1210 leukemia ip in BDF1 mice, survival T/C
Test: NCI In Vivo Anticancer Drug Screen. Data for tumor model L1210 Leukemia (intraperitoneal) in B6D2F1 (BDF1) mice
Settings: endpoint: mean survival time, higher = longer survival
Summary of the method: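 Survival endpoint. Drug-treated group vs vehicle group, expressed as T divided by C. Tumor passaged by transplantation.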

[1] = dose: 100.0 mg/kg/injection, schedule: Q01DX001 (ip), vehicle: carboxymethylcellulose (CMC)
[2] = dose: 200.0 mg/kg/injection, schedule: Q01DX001 (ip), vehicle: carboxymethylcellulose (CMC)
[3] = dose: 400.0 mg/kg/injection, schedule: Q01DX001 (ip), vehicle: carboxymethylcellulose (CMC)
[4] = dose: 100.0 mg/kg/injection, schedule: Q04DX003 (ip), vehicle: Klucel (hydroxypropylcellulose) (HPC)
[5] = dose: 200.0 mg/kg/injection, schedule: Q04DX003 (ip), vehicle: Klucel (hydroxypropylcellulose) (HPC)
[6] = dose: 400.0 mg/kg/injection, schedule: Q04DX003 (ip), vehicle: Klucel (hydroxypropylcellulose) (HPC)
[7] = dose: 100.0 mg/kg/injection, schedule: Q01DX001 (ip), vehicle: Klucel (hydroxypropylcellulose) (HPC)
[8] = dose: 100.0 mg/kg/injection, schedule: Q01DX009 (ip), vehicle: Klucel (hydroxypropylcellulose) (HPC)
[9] = dose: 100.0 mg/kg/injection, schedule: Q04DX002 (ip), vehicle: Klucel (hydroxypropylcellulose) (HPC)
[10] = dose: 200.0 mg/kg/injection, schedule: Q01DX001 (ip), vehicle: Klucel (hydroxypropylcellulose) (HPC)
[11] = dose: 200.0 mg/kg/injection, schedule: Q04DX002 (ip), vehicle: Klucel (hydroxypropylcellulose) (HPC)
[12] = dose: 400.0 mg/kg/injection, schedule: Q04DX002 (ip), vehicle: Klucel (hydroxypropylcellulose) (HPC)
[13] = dose: 100.0 mg/kg/injection, schedule: Q04DX003 (ip), vehicle: saline

Measured: T/C

COC(=O)c1cc(C)cc(OC(=S)N(C)C)c1C
inactive: [1] 96 % of control | dose: 100.0 mg/kg/injection, schedule: Q01DX009 (ip), vehicle: carboxymethylcellulose (CMC) 103 % of control | [2] 93 % of control | dose: 200.0 mg/kg/injection, schedule: Q01DX009 (ip), vehicle: carboxymethylcellulose (CMC) 98 % of control | [3] 96 % of control | dose: 400.0 mg/kg/injection, schedule: Q01DX009 (ip), vehicle: carboxymethylcellulose (CMC) 93 % of control | dose: 800.0 mg/kg/injection, schedule: Q01DX009 (ip), vehicle: carboxymethylcellulose (CMC) 103 % of control

O=C(O)CCC(=O)NNC(=O)Cc1c[nH]c2ccccc12
inactive: dose: 100.0 mg/kg/injection, schedule: Q01DX001 (ip), vehicle: other 106 % of control | dose: 100.0 mg/kg/injection, schedule: Q04DX003 (ip), vehicle: other 95 % of control | dose: 200.0 mg/kg/injection, schedule: Q01DX001 (ip), vehicle: other 106 % of control | dose: 200.0 mg/kg/injection, schedule: Q04DX003 (ip), vehicle: other 94 % of control | dose: 400.0 mg/kg/injection, schedule: Q01DX001 (ip), vehicle: other 97 % of control | dose: 400.0 mg/kg/injection, schedule: Q04DX003 (ip), vehicle: other 94 % of control

Nc1ccc(OCc2ccc(C(=O)Nc3cccc(S(=O)(=O)F)c3)cc2)c(Cl)c1
inactive: [4] 100 % of control | [5] 108 % of control | [6] 96 % of control

CCSC1OC(C(COC(C)=O)OC(C)=O)C(OC(C)=O)C1NC(C)=O (configuration not stated)
inactive: dose: 50.0 mg/kg/injection, schedule: Q01DX001 (ip), vehicle: saline 103 % of control | dose: 100.0 mg/kg/injection, schedule: Q01DX001 (ip), vehicle: saline 110 % of control | dose: 200.0 mg/kg/injection, schedule: Q01DX001 (ip), vehicle: saline 97 % of control | dose: 400.0 mg/kg/injection, schedule: Q01DX001 (ip), vehicle: saline 100 % of control

NOC(=O)C(O)(c1ccccc1)C1CCCCC1 (configuration not stated)
inactive: dose: 75.0 mg/kg/injection, schedule: Q01DX001 (ip), vehicle: other 104 % of control | dose: 150.0 mg/kg/injection, schedule: Q01DX001 (ip), vehicle: other 98 % of control | dose: 300.0 mg/kg/injection, schedule: Q01DX001 (ip), vehicle: other 98 % of control

S=c1cccc[nH]1.[Pb]
inactive: dose: 100.0 mg/kg/injection, schedule: Q04DX002 (ip), vehicle: gum acacia 103 % of control | dose: 200.0 mg/kg/injection, schedule: Q04DX002 (ip), vehicle: gum acacia 100 % of control

CC(/C=N/N(C)C(=N)N)=N\N(C)C(=N)N
inactive: dose: 15.0 mg/kg/injection, schedule: Q01DX Z (ip), vehicle: saline 88 % of control | dose: 30.0 mg/kg/injection, schedule: Q01DX Z (ip), vehicle: saline 103 % of control | dose: 60.0 mg/kg/injection, schedule: Q01DX Z (ip), vehicle: saline 98 % of control | dose: 120.0 mg/kg/injection, schedule: Q01DX Z (ip), vehicle: saline 102 % of control | dose: 120.0 mg/kg/injection, schedule: Q01DX Z (oral), vehicle: saline 103 % of control | dose: 240.0 mg/kg/injection, schedule: Q01DX Z (oral), vehicle: saline 97 % of control | dose: 480.0 mg/kg/injection, schedule: Q01DX Z (oral), vehicle: saline 106 % of control | dose: 960.0 mg/kg/injection, schedule: Q01DX Z (oral), vehicle: saline 113 % of control

O=C(Nc1ccccc1C(F)(F)F)OCCN1CCNC1=S
inactive: [7] 106 % of control | [8] 96 % of control and 103 % of control | [9] 94 % of control and 96 % of control | [4] 101 % of control | [10] 103 % of control | dose: 200.0 mg/kg/injection, schedule: Q01DX009 (ip), vehicle: Klucel (hydroxypropylcellulose) (HPC) 98 % of control and 100 % of control | [11] 95 % of control and 111 % of control | [5] 106 % of control | dose: 400.0 mg/kg/injection, schedule: Q01DX001 (ip), vehicle: Klucel (hydroxypropylcellulose) (HPC) 104 % of control | dose: 400.0 mg/kg/injection, schedule: Q01DX009 (ip), vehicle: Klucel (hydroxypropylcellulose) (HPC) 95 % of control and 100 % of control | [12] 94 % of control and 104 % of control | [6] 89 % of control

CCCCC[C@H](O)/C=C/[C@@H]1[C@@H](C/C=C\CCCC(=O)O)[C@@H](O)C[C@H]1O
inactive: dose: 0.25 mg/kg/injection, schedule: Q#A X020 (ip), vehicle: saline 98 % of control | dose: 0.5 mg/kg/injection, schedule: Q#A X020 (ip), vehicle: saline 96 % of control | dose: 1.0 mg/kg/injection, schedule: Q#A X020 (ip), vehicle: saline 101 % of control | dose: 2.0 mg/kg/injection, schedule: Q#A X020 (ip), vehicle: saline 104 % of control | dose: 5.0 mg/kg/injection, schedule: Q04DX002 (ip), vehicle: saline 96 % of control | dose: 10.0 mg/kg/injection, schedule: Q04DX002 (ip), vehicle: saline 96 % of control | dose: 20.0 mg/kg/injection, schedule: Q04DX002 (ip), vehicle: saline 88 % of control

CC(C)(O)CC(O)(C(F)(F)F)C(F)(F)F
inactive: dose: 6.0 mg/kg/injection, schedule: Q01DX009 (ip), vehicle: other 94 % of control | dose: 12.0 mg/kg/injection, schedule: Q01DX009 (ip), vehicle: other 100 % of control | dose: 25.0 mg/kg/injection, schedule: Q01DX009 (ip), vehicle: other 105 % of control and 106 % of control and 86 % of control | dose: 50.0 mg/kg/injection, schedule: Q01DX009 (ip), vehicle: other 97 % of control | dose: 100.0 mg/kg/injection, schedule: Q01DX009 (ip), vehicle: other 98 % of control

OC(COC(c1ccccc1)(c1ccccc1)c1ccccc1)C(O)CC1SCCS1 (configuration not stated)
inactive: dose: 50.0 mg/kg/injection, schedule: Q01DX001 (ip), vehicle: carboxymethylcellulose (CMC) 105 % of control | [1] 105 % of control | [2] 94 % of control | [3] 100 % of control

CC(NC(=O)c1ccccc1)C(=O)O (configuration not stated)
inactive: dose: 50.0 mg/kg/injection, schedule: Q01DX009 (ip), vehicle: Klucel (hydroxypropylcellulose) (HPC) 110 % of control | [8] 91 % of control | [9] 90 % of control | [11] 108 % of control | [12] 93 % of control

OC1(c2ccccc2)C=C(c2ccccc2)C=C(c2ccccc2)O1 (configuration not stated)
inactive: dose: 50.0 mg/kg/injection, schedule: Q01DX001 (ip), vehicle: Klucel (hydroxypropylcellulose) (HPC) 87 % of control | [7] 92 % of control | [10] 94 % of control

Cc1cc([N+](=O)[O-])cc([N+](=O)[O-])c1OC(=O)c1ccc(N=C(N)N)cc1
inactive: dose: 25.0 mg/kg/injection, schedule: Q04DX003 (ip), vehicle: saline 103 % of control | dose: 50.0 mg/kg/injection, schedule: Q01DX009 (ip), vehicle: saline 102 % of control | dose: 50.0 mg/kg/injection, schedule: Q04DX003 (ip), vehicle: saline 97 % of control | dose: 100.0 mg/kg/injection, schedule: Q01DX009 (ip), vehicle: saline 94 % of control and 91 % of control | [13] 96 % of control and 92 % of control

COc1cc(OCc2ccccc2)c([N+](=O)[O-])cc1OC
inactive: [13] 116 % of control | dose: 200.0 mg/kg/injection, schedule: Q04DX003 (ip), vehicle: saline 124 % of control | dose: 400.0 mg/kg/injection, schedule: Q04DX003 (ip), vehicle: saline 112 % of control
